How the values were obtained:
[1] = test system: mouse fibroblasts NIH3T3; test: [^18F]HX-01 uptake in NIH3T3 cells, with and without CCCP (γ counter); format: cell-based
Description: (§1) As described in method 1.4.4, the suspension of rat cardiomyocytes H9C2, NIH3T3 cells and SD neonatal rat primary cardiomyocytes was adjusted to the concentration of 20×10^4/ml, inoculated in a six-well plate, with 2 ml for each well (containing 4×10^5 cells), and the experimental group and CCCP inhibition group were included, The plate was cultured at 37° C. in 5% CO2 under saturated humidity for 24 h. After the cells adhered, 30 minutes before addition of [^18F]HX-01, the DMEM high-glucose medium in the Petri dish was aspirated and discarded. DMEM high-glucose medium containing CCCP (0.5 μM) was firstly added at 2 ml/well to the cell culture dish in CCCP inhibition group, while an equal volume of DMEM high-glucose medium without CCCP was added to the cell culture dish in the experimental groups, and the dish was incubated at 37° C. in 5% CO2 under saturated humidity for 30 min. Then, 100 μl solution of [^18F]HX-01 dissolved in saline was added to each well at a dose of 2.5 μCi. The plate was incubated at 37° C. in 5% CO2 under saturation humidity. After incubation for 5 min, 10 min, 30 min, 60 min and 120 min, the liquid in the well was collected, and rinsed 3 times with PBS, and all the rinse liquid was collected in the radioimmunotubes. After digestion with 0.25% trypsin, all cells were collected in the radioimmunotubes, and the radioactivity counts of the liquid and cells in the wells were measured with a γ counter, and the data were recorded. Three replicate holes were set for each time point.

[2] = test system: SD neonatal rat primary cardiomyocytes; test: [^18F]HX-01 uptake in SD neonatal rat primary cardiomyocytes, with and without CCCP (γ counter); format: cell-based
Description: as §1

[3] = rabbit, in vivo
[4] = Competitive inhibition test of [^18F]HX-01 and non-radioactive standard [^19F]HX-01 (PET); format: in vivo, New Zealand white rabbit; conditions: [^19F]HX-01 1 nmol/kg i.v. 30 min before tracer
Description: After anesthesia and fixation, the male New Zealand white rabbits were set as their own control (n=3). On the first day, 2 ml saline was injected into the ear marginal vein of the rabbits. Then, the tracer [^18F]HX-01 was injected, and the dosage was 0.5 mci/kg, and PET scanning was performed immediately as described in 1.4.2. On the second day, non-radioactive standard [^19F]HX-01 was injected through ear edge vein, and the dose of standard substance was 1 nmol/kg, that was dissolved in 2 ml normal saline. 30 min After injection of non-radioactive standard [^19F]HX-01, the tracer [^18F]HX-01 was injected, and the injection doe was 0.5 mCi/kg. After the injection, PET dynamic scanning was performed as described in 1.4.2. […] Using Compassview 5.0 to analyze and process the data, the brain, heart, liver, lung, kidney, bone and muscle of the region of interest (ROI) were drawn on the horizontal axis, and SUVmax was recorded.

[5] = SD rat myocardial infarction model, 350 μCi/rat, up to 120 min
[6] = test system: rat cardiomyocytes H9C2; test: [^18F]HX-01 uptake in H9C2 cells, with and without CCCP (γ counter); format: cell-based
Description: as §1, with “After incubation for 5 min, 10 min, 30 min, 60 min and 120 min, the liquid in the well was collected, and rinsed 3 times with PBS, and all the rinse liquid was collected in the radioimmunotubes.” left out, “Three replicate holes were set for each time point.” left out

[7] = test system: mitochondria of SD neonatal rat primary cardiomyocytes; test: [^19F]HX-01 localization with red mitochondrial probe M7513 in primary cardiomyocytes; format: cell-based; conditions: 4 μM, 10 min, cardiomyocytes and surrounding mixed cells
Description: The suspension of primary myocardial cells of SD suckling mice was adjusted to the concentration of 20×10^4/ml, inoculated in a six-well plate, with 2 ml for each well, and then incubated at 37° C. in 5% CO2 under saturated humidity for 24 h. After adherence, the DMEM high glucose medium in each well was aspirated and discarded, and DMEM high glucose medium containing different concentrations of [^19F]HX-01 (6.25, 12.5, 25, 50, 100, 150, and 200 μM) was firstly added, with 2 ml for each well, and each concentration has three replicate wells. After incubation at 37° C. in 5% CO2 under saturated humidity for 1 h, the liquid in each well was aspirated and removed. […] After the wells were washed three times with PBS, the cells were finally observed under a confocal fluorescence microscope with an excitation wavelength of 488 nm.
In order to further clarify the localization characteristics of [^19F]HX-01 in the subcellular organelles of SD rat primary cardiomyocytes, after addition of above different concentrations of [^19F]HX-01 and incubation for 1 h, the medium was discarded, and each well was rinsed with PBS three times. Each well was added the medium containing mitochondrial specific probe with red fluorescence (Mito Tracker Red (M7513), Thermo fisher) and incubated for another 10 min, the medium was removed, and each well was rinsed with PBS three times. […]

Row | SMILES | uptake percentage ([1]; 5 min) | uptake percentage ([1]; 120 min) | uptake, normal group vs CCCP inhibition group ([1]; CCCP 0.5 μM, p>0.05) | uptake percentage ([2]; 30 min) | uptake percentage (peak value) ([2]; 120 min) | intake percentage, normal group vs CCCP inhibition group ([2]; CCCP 0.5 μM, p>0.05) | SUVmax ratio of heart/lung [3] | SUVmax ratio of heart/muscle [3] | uptake in other tissues such as brain, lung, muscle and bone [3] | kidney uptake (SUVmax), inhibition group vs control group [4] | liver uptake (SUVmax), inhibition group vs control group [4] | myocardial uptake (SUVmax), inhibition group vs control group ([4]; P<0.001) | lung, bone, muscle and brain uptake (SUVmax), inhibition group vs control group ([4]; P>0.05) | Micro PET image of anterior wall of left ventricle near apical area (infarction) [5] | uptake percentage (peak value) ([6]; 120 min, 2.5 μCi per well) | uptake percentage, control group vs CCCP inhibition group ([6]; CCCP 0.5 μM 30 min before tracer) | distribution of red fluorescence of the probe [7]
1 | COc1c(OCCC[18F])ccc2cc3[n+](cc12)CCc1cc2c(cc1-3)OCO2.[Cl-] [[^18F]HX-01] | 0.78±0.06 | 0.91±0.01 | did not show a significant difference | 2.08%±0.13% | 2.41%±0.03% | no significant difference in the intake percentage | greater than 10 | greater than 10 | extremely low | no statistical significance between the two groups | no statistical significance between the inhibition group and the control group | SUVmax value was obviously reduced | not statistically significant | showed a fixed radioactive defect | 2.89%±0.11% | didn't show significant difference in the uptake percentage | 
2 | ClCc1ccc(C2=c3cc4c5c(c3Oc3c2cc2c6c3CCCN6CCC2)CCC[N+]=5CCC4)cc1.[Cl-] [M7513] |  |  |  |  |  |  |  |  |  |  |  |  |  |  |  |  | appeared in the mitochondria of all cells in a granular distribution

Reference: patent US11141496B2, “Use of berberine or derivative thereof in preparing myocardial perfusion imaging agent” (WEST CHINA HOSPITAL, SICHUAN UNIVERSITY, priority 2017, dated 2021)
